Key:
[1] = biological target: T1, recombinant GTase A320 (Arabidopsis thaliana, UniProt Q9LVF0); assay: Specific activity of recombinant GTase producing glucose ester against lignin precursors (HPLC); type: biochemical; conditions: 5 mM UDPG, 0.2 μg GTase, 200 μl, 20° C., 30 min
T1 construct: made in house; host or cells: E. coli
T1 sequence (Q9LVF0 1-496): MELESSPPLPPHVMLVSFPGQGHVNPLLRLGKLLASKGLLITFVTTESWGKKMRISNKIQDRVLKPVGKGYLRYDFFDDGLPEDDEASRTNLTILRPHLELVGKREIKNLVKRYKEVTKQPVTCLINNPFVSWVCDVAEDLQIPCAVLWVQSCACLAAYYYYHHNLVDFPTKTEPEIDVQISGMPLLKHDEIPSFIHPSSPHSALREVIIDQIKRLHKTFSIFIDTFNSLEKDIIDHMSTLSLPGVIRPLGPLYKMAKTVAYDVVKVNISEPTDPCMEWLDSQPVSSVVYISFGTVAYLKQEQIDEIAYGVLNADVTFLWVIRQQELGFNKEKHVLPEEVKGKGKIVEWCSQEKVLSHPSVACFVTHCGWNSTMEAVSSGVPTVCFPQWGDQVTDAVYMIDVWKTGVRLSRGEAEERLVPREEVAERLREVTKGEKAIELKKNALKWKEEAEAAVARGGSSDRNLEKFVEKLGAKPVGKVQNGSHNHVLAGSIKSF

[2] = biological target: T2, recombinant GTase A42 (Arabidopsis thaliana, UniProt O23401); assay: as above; type: biochemical; conditions: 0.5 ml of potential substrates, 5 mM UDPG, 0.2 μg GTase, 200 μl, 20° C., 30 min
T2 construct: made in house; host or cells: E. coli
T2 sequence (O23401 1-479): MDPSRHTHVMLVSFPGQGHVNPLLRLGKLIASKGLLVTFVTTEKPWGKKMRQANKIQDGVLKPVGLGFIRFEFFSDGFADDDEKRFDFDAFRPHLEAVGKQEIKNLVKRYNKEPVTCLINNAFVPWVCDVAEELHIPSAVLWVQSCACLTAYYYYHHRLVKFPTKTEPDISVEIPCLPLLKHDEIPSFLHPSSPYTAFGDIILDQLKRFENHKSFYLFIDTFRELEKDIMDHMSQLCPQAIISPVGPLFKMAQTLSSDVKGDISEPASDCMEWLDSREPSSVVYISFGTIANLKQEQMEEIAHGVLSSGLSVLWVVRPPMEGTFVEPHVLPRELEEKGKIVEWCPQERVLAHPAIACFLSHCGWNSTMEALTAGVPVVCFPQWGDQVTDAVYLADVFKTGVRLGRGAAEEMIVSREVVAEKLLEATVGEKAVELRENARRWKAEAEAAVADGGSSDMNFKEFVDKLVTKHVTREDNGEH

[3] = biological target: T2, recombinant GTase A42; assay: Kinetic studies (Michaelis-Menten) on recombinant GTase producing glucose esters; type: biochemical; conditions: glucose ester formation
[4] = biological target: T3, recombinant GTase A43 (Arabidopsis thaliana, UniProt O23402); assay: Specific activity of recombinant GTase producing glucose ester against lignin precursors (HPLC); type: biochemical; conditions: 0.5 ml of potential substrates, 5 mM UDPG, 0.2 μg GTase, 200 μl, 20° C., 30 min
T3 construct: made in house; host or cells: E. coli

[5] = biological target: T4, recombinant GTase A41 (Arabidopsis thaliana, UniProt Q5XF20); assay: as above; type: biochemical; conditions: 5 mM UDPG, 0.2 μg GTase, 200 μl, 20° C., 30 min
T4 construct: made in house; host or cells: E. coli
T4 sequence (Q5XF20 7-490): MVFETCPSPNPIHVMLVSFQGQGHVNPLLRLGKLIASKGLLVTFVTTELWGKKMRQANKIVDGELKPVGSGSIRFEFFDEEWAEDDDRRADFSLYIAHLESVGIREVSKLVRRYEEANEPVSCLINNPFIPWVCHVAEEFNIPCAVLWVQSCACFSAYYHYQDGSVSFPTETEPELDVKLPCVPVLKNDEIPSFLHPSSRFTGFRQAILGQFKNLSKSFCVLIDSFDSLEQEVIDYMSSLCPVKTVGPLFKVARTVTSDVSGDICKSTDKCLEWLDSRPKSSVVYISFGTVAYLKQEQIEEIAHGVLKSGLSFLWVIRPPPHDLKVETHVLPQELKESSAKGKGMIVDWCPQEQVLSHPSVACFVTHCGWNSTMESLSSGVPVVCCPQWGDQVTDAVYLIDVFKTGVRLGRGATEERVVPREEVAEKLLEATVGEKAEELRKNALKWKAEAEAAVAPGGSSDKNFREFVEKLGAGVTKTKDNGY

[6] = biological target: T5, recombinant GTase A911 (Arabidopsis thaliana, UniProt O22182); assay: Kinetic studies (Michaelis-Menten) on recombinant GTase producing glucose esters; conditions: glucose ester formation
T5 sequence (O22182 1-456): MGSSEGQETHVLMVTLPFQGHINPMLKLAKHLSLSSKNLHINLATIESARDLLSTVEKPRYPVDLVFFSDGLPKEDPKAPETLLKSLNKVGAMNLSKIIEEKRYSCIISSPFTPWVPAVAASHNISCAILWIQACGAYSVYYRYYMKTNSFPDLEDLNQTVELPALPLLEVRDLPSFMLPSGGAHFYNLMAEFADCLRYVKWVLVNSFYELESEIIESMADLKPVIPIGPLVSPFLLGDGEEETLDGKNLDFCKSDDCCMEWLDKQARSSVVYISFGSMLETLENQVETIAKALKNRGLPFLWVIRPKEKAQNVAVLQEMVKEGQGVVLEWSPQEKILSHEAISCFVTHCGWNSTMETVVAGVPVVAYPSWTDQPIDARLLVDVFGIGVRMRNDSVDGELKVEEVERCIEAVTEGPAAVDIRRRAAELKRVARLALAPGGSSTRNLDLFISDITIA

[7] = biological target: T6, recombinant GTase A062 (Arabidopsis thaliana, UniProt Q9LR44); assay: Specific activity of recombinant GTase producing glucose ester against lignin precursors (HPLC); type: biochemical; conditions: 0.5 ml of potential substrates, 5 mM UDPG, 0.2 μg GTase, 200 μl, 20° C., 30 min
T6 construct: made in house; host or cells: E. coli
T6 sequence (Q9LR44 1-469): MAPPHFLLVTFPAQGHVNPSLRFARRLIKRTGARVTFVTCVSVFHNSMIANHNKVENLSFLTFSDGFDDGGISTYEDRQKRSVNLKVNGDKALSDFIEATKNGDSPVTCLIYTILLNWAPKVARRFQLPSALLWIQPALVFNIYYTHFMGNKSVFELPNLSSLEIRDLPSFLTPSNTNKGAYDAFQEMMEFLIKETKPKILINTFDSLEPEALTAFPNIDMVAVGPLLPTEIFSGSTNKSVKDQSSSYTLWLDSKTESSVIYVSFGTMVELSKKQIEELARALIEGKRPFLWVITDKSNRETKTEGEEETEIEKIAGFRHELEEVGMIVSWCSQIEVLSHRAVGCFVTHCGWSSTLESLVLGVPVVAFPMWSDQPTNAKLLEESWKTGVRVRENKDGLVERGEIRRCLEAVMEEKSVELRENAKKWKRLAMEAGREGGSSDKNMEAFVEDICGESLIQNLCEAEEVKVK

[8] = biological target: T5, recombinant GTase A911; assay: as above; type: biochemical; parameters: made in house; host or cells: E. coli; conditions: 0.5 ml of potential substrates, 5 mM UDPG, 0.2 μg GTase, 200 μl, 20° C., 30 min
[9] = substrate: O=C(O)C=Cc1ccccc1; assay: Kinetic studies (Michaelis-Menten) on recombinant GTase producing glucose esters; type: biochemical, Arabidopsis thaliana; conditions: other: glucose ester formation; pH 7.0; 30.0 °C
[10] = substrate: O=C(O)/C=C/c1ccc(O)cc1; assay: as above; type: biochemical, Arabidopsis thaliana; conditions: other: glucose ester formation; pH 7.0; 30.0 °C

Molecule | Specific activity of A320 (substrate converted to glucose ester) [1] | Specific activity of A42 (substrate converted to glucose ester) [2] | Vmax (A42) [3] | Specific activity of A43 (substrate converted to glucose ester) [4] | Specific activity of A41 (substrate converted to glucose ester) [5] | Vmax (A911) [6] | Specific activity of A062 (substrate converted to glucose ester) [7] | Specific activity of A911 (substrate converted to glucose ester) [8] | Km [9] | Vmax [9] | Km [10] | Vmax [10]
O=C(O)C=Cc1ccccc1 [Cinnamic acid, cinnamic acid] | 0.06 nkat/mg | 14.21 nkat/mg | 19.42 nkat/mg | 0.02 nkat/mg | 0.30 nkat/mg | 9.06 nkat/mg | 1.62 nkat/mg | 8.77 nkat/mg |  |  |  | 
recombinant GTase A062 (Arabidopsis thaliana) (protein, made in house; host or cells: E. coli) MAPPHFLLVTFPAQGHVNPSLRFARRLIKRTGARVTFVTCVSVFHNSMIANHNKVENLSFLTFSDGFDDGGISTYEDRQKRSVNLKVNGDKALSDFIEATKNGDSPVTCLIYTILLNWAPKVARRFQLPSALLWIQPALVFNIYYTHFMGNKSVFELPNLSSLEIRDLPSFLTPSNTNKGAYDAFQEMMEFLIKETKPKILINTFDSLEPEALTAFPNIDMVAVGPLLPTEIFSGSTNKSVKDQSSSYTLWLDSKTESSVIYVSFGTMVELSKKQIEELARALIEGKRPFLWVITDKSNRETKTEGEEETEIEKIAGFRHELEEVGMIVSWCSQIEVLSHRAVGCFVTHCGWSSTLESLVLGVPVVAFPMWSDQPTNAKLLEESWKTGVRVRENKDGLVERGEIRRCLEAVMEEKSVELRENAKKWKRLAMEAGREGGSSDKNMEAFVEDICGESLIQNLCEAEEVKVK |  |  |  |  |  |  |  |  | 4.33 mM | 2.87 nkat/mg | 5.05 mM | 4.91 nkat/mg
